In PubChem BioAssay (NCI):
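These data come from cells grown in 96-well plates and exposed to compound for 48 hours at five concentrations. GI50 is the concentration that inhibits growth by half. TGI marks complete inhibition of growth.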

What was measured:
Assay in all cases: NCI tumour cell line growth inhibition, 48 h
[1] = test system: KM12 colon
[2] = test system: SK-MEL-5 melanoma
[3] = test system: MDA-MB-435
[4] = test system: PC-3 prostate
[5] = test system: MALME-3M melanoma
[6] = test system: EKVX NSCLC
[7] = test system: BT-549 breast
[8] = test system: SR leukemia
[9] = test system: A498 renal
[10] = test system: HCC-2998 colon
[11] = test system: IGROV1 ovarian
[12] = test system: COLO 205 colon
[13] = test system: A549 NSCLC
[14] = test system: OVCAR-3 ovarian
[15] = test system: SF-295 CNS
[16] = test system: RPMI-8226 leukemia
[17] = test system: UO-31 renal
[18] = test system: OVCAR-4 ovarian
[19] = test system: NCI-H23 lung
[20] = test system: SN12C renal
[21] = test system: M14 melanoma
[22] = test system: SK-OV-3 ovarian
[23] = test system: NCI-H226 lung
[24] = test system: MOLT-4 leukemia
[25] = test system: HOP-92 NSCLC
[26] = test system: HT29 colon
[27] = test system: SF-268 CNS
[28] = test system: ACHN renal
[29] = test system: MCF7 breast
[30] = test system: CCRF-CEM leukemia
[31] = test system: TK-10 renal
[32] = test system: SW-620 colon
[33] = test system: OVCAR-8 ovarian
[34] = test system: HCT-116 colon
[35] = test system: MDA-MB-231 breast
[36] = test system: K-562 leukemia
[37] = test system: UACC-257 melanoma
[38] = test system: NCI/ADR-RES ovarian
[39] = test system: OVCAR-5 ovarian
[40] = test system: DU-145 prostate
[41] = test system: 786-0 renal
[42] = test system: SNB-19 CNS
[43] = test system: CAKI-1 renal
[44] = test system: NCI-H460 lung
[45] = test system: SF-539 CNS
[46] = test system: NCI-H522 lung
[47] = test system: HOP-62 NSCLC
[48] = test system: SK-MEL-28 melanoma
[49] = test system: UACC-62 melanoma
[50] = test system: SK-MEL-2 melanoma
[51] = test system: LOX IMVI melanoma
[52] = test system: U251 CNS
[53] = test system: SNB-75 CNS
[54] = test system: HCT-15 colon
[55] = test system: HS 578T breast
[56] = test system: RXF 393 renal

**Q.** Which TGI [1] does the source give for `CCC(C)C(NC(=O)c1c2ccccc2nc2ccccc12)C(=O)O` (stereo not drawn) here?
**A.** The TGI was > 100 µM.

**Q.** What about the TGI [2] of the same compound?
**A.** Its TGI is > 100 µM.

**Q.** What about the TGI [3] of the same compound?
**A.** Its TGI is > 100 µM.

**Q.** What about the TGI [4] of the same compound?
**A.** Its TGI is > 100 µM.

**Q.** What about the TGI [5] of the same compound?
**A.** Its TGI is > 100 µM.

**Q.** And the TGI [6]?
**A.** Its TGI is > 100 µM.

**Q.** What about the TGI [7] of the same compound?
**A.** Its TGI is 94.1 µM.

**Q.** And the TGI [8]?
**A.** The TGI was > 100 µM.

**Q.** What about the TGI [9] of the same compound?
**A.** The TGI was > 100 µM.

**Q.** And the TGI [10]?
**A.** Its TGI is > 100 µM.

**Q.** What about the TGI [11] of the same compound?
**A.** The TGI was > 100 µM.

**Q.** And the TGI [12]?
**A.** Its TGI is > 100 µM.

**Q.** And the TGI [13]?
**A.** The TGI was > 100 µM.

**Q.** What about the TGI [14] of the same compound?
**A.** Its TGI is > 100 µM.

**Q.** And the TGI [15]?
**A.** The TGI was > 100 µM.

**Q.** What about the TGI [16] of the same compound?
**A.** Its TGI is > 100 µM.

**Q.** And the TGI [17]?
**A.** Its TGI is > 100 µM.

**Q.** And the TGI [18]?
**A.** Its TGI is > 100 µM.

**Q.** And the TGI [19]?
**A.** Its TGI is > 100 µM.

**Q.** What about the TGI [20] of the same compound?
**A.** The TGI was > 100 µM.

**Q.** What about the TGI [21] of the same compound?
**A.** The TGI was > 100 µM.

**Q.** What about the TGI [22] of the same compound?
**A.** Its TGI is > 100 µM.

**Q.** And the TGI [23]?
**A.** Its TGI is > 100 µM.

**Q.** And the TGI [24]?
**A.** The TGI was > 100 µM.

**Q.** And the TGI [25]?
**A.** Its TGI is > 100 µM.

**Q.** And the TGI [26]?
**A.** The TGI was > 100 µM.

**Q.** What about the TGI [27] of the same compound?
**A.** Its TGI is > 100 µM.

**Q.** And the TGI [28]?
**A.** Its TGI is > 100 µM.

**Q.** And the TGI [29]?
**A.** The TGI was > 100 µM.

**Q.** What about the TGI [30] of the same compound?
**A.** The TGI was > 100 µM.

**Q.** What about the TGI [31] of the same compound?
**A.** The TGI was > 100 µM.

**Q.** What about the TGI [32] of the same compound?
**A.** Its TGI is > 100 µM.

**Q.** What about the TGI [33] of the same compound?
**A.** The TGI was > 100 µM.

**Q.** What about the TGI [34] of the same compound?
**A.** The TGI was > 100 µM.

**Q.** And the TGI [35]?
**A.** The TGI was > 100 µM.

**Q.** What about the TGI [36] of the same compound?
**A.** The TGI was > 100 µM.

**Q.** And the TGI [37]?
**A.** The TGI was > 100 µM.

**Q.** And the TGI [38]?
**A.** The TGI was > 100 µM.

**Q.** And the TGI [39]?
**A.** Its TGI is > 100 µM.

**Q.** And the TGI [40]?
**A.** The TGI was > 100 µM.

**Q.** And the TGI [41]?
**A.** The TGI was > 100 µM.

**Q.** What about the TGI [42] of the same compound?
**A.** The TGI was > 100 µM.

**Q.** What about the TGI [43] of the same compound?
**A.** Its TGI is > 100 µM.

**Q.** What about the TGI [44] of the same compound?
**A.** The TGI was > 100 µM.

**Q.** What about the TGI [45] of the same compound?
**A.** Its TGI is > 100 µM.

**Q.** And the TGI [46]?
**A.** The TGI was > 100 µM.

**Q.** What about the TGI [47] of the same compound?
**A.** Its TGI is > 100 µM.

**Q.** And the TGI [48]?
**A.** Its TGI is > 100 µM.

**Q.** And the TGI [49]?
**A.** Its TGI is > 100 µM.

**Q.** And the TGI [50]?
**A.** The TGI was > 100 µM.

**Q.** And the TGI [51]?
**A.** The TGI was > 100 µM.

**Q.** What about the TGI [52] of the same compound?
**A.** Its TGI is > 100 µM.

**Q.** And the TGI [53]?
**A.** Its TGI is > 100 µM.

**Q.** And the TGI [54]?
**A.** Its TGI is > 100 µM.

**Q.** With `OCCN1CCN(c2nc(Nc3ccc(-c4nc5ccccc5[nH]4)cc3)c3cn[nH]c3n2)CC1` as the compound, how does the GI50 [2] read?
**A.** Its GI50 is 1.75 µM.

**Q.** And the TGI [2]?
**A.** The TGI was 3.15 µM.

**Q.** What about the GI50 [3] of the same compound?
**A.** The GI50 was 1.82 µM.

**Q.** And the TGI [3]?
**A.** Its TGI is 3.29 µM.

**Q.** What about the GI50 [4] of the same compound?
**A.** The GI50 was 1.64 µM.

**Q.** And the TGI [4]?
**A.** Its TGI is 3.13 µM.

**Q.** And the GI50 [6]?
**A.** The GI50 was 1.73 µM.

**Q.** And the TGI [6]?
**A.** Its TGI is 3.26 µM.

**Q.** And the GI50 [9]?
**A.** Its GI50 is 1.92 µM.

**Q.** What about the TGI [9] of the same compound?
**A.** The TGI was 3.44 µM.

**Q.** What about the GI50 [10] of the same compound?
**A.** The GI50 was 1.74 µM.

**Q.** What about the TGI [10] of the same compound?
**A.** The TGI was 3.33 µM.

**Q.** What about the GI50 [14] of the same compound?
**A.** Its GI50 is 1.69 µM.

**Q.** And the TGI [14]?
**A.** Its TGI is 3.28 µM.

**Q.** What about the GI50 [15] of the same compound?
**A.** Its GI50 is 1.88 µM.

**Q.** And the TGI [15]?
**A.** Its TGI is 3.31 µM.

**Q.** What about the GI50 [17] of the same compound?
**A.** Its GI50 is 1.64 µM.

**Q.** And the TGI [17]?
**A.** The TGI was 3.14 µM.

**Q.** And the GI50 [55]?
**A.** The GI50 was 2.15 µM.

**Q.** And the TGI [55]?
**A.** The TGI was 5.33 µM.

**Q.** And the GI50 [19]?
**A.** The GI50 was 1.83 µM.

**Q.** And the TGI [19]?
**A.** The TGI was 3.54 µM.

**Q.** What about the GI50 [25] of the same compound?
**A.** The GI50 was 1.41 µM.

**Q.** And the TGI [25]?
**A.** The TGI was 2.91 µM.

**Q.** What about the GI50 [28] of the same compound?
**A.** Its GI50 is 1.75 µM.

**Q.** And the TGI [28]?
**A.** The TGI was 3.16 µM.

**Q.** And the GI50 [29]?
**A.** Its GI50 is 1.59 µM.

**Q.** And the TGI [29]?
**A.** The TGI was 3.54 µM.

**Q.** What about the GI50 [32] of the same compound?
**A.** Its GI50 is 0.464 µM.

**Q.** And the TGI [32]?
**A.** The TGI was 1.87 µM.

**Q.** What about the GI50 [39] of the same compound?
**A.** Its GI50 is 1.83 µM.

**Q.** And the TGI [39]?
**A.** The TGI was 3.26 µM.

**Q.** And the GI50 [56]?
**A.** The GI50 was 1.43 µM.

**Q.** And the TGI [56]?
**A.** Its TGI is 2.85 µM.

**Q.** And the GI50 [43]?
**A.** The GI50 was 1.72 µM.

**Q.** And the TGI [43]?
**A.** Its TGI is 3.13 µM.

**Q.** And the GI50 [45]?
**A.** Its GI50 is 1.7 µM.

**Q.** What about the TGI [45] of the same compound?
**A.** Its TGI is 3.08 µM.

**Q.** What about the GI50 [48] of the same compound?
**A.** Its GI50 is 1.65 µM.

**Q.** What about the TGI [48] of the same compound?
**A.** The TGI was 3.05 µM.

**Q.** What about the GI50 [51] of the same compound?
**A.** The GI50 was 1.63 µM.

**Q.** And the TGI [51]?
**A.** The TGI was 3.13 µM.

**Q.** And the GI50 [54]?
**A.** Its GI50 is 1.15 µM.

**Q.** And the TGI [54]?
**A.** The TGI was 2.5 µM.
